# In PubChem BioAssay (NCI):
#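 Exposure lasted 48 hours, with cells grown in 96-well plates and compounds tested at five concentrations. Here, GI50 denotes the concentration required for 50% inhibition of growth. TGI is the concentration that stops growth completely.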
# How the values were obtained:
# Assay in all cases: growth of human tumour cells (NCI), 48 h
# CAKI-1 renal = test system: CAKI-1 renal
# HCC-2998 colon = test system: HCC-2998 colon
# HCT-116 colon = test system: HCT-116 colon
# KM12 colon = test system: KM12 colon
# LOX IMVI melanoma = test system: LOX IMVI melanoma
# NCI-H522 lung = test system: NCI-H522 lung
# SF-295 CNS = test system: SF-295 CNS
# SF-539 CNS = test system: SF-539 CNS
# SK-MEL-5 melanoma = test system: SK-MEL-5 melanoma
# UACC-257 melanoma = test system: UACC-257 melanoma
Compound,GI50 (CAKI-1 renal) [µM],TGI (CAKI-1 renal) [µM],GI50 (HCC-2998 colon) [µM],TGI (HCC-2998 colon) [µM],GI50 (HCT-116 colon) [µM],TGI (HCT-116 colon) [µM],GI50 (KM12 colon) [µM],TGI (KM12 colon) [µM],GI50 (LOX IMVI melanoma) [µM],TGI (LOX IMVI melanoma) [µM],GI50 (NCI-H522 lung) [µM],TGI (NCI-H522 lung) [µM],GI50 (SF-295 CNS) [µM],TGI (SF-295 CNS) [µM],GI50 (SF-539 CNS) [µM],TGI (SF-539 CNS) [µM],GI50 (SK-MEL-5 melanoma) [µM],TGI (SK-MEL-5 melanoma) [µM],GI50 (UACC-257 melanoma) [µM],TGI (UACC-257 melanoma) [µM]
CS(=O)(=O)c1ccc(-c2cnc(NCc3ccco3)n3cnnc23)cc1,> 100,> 100,> 100,> 100,> 100,> 100,> 100,> 100,60.1,> 100,> 100,> 100,> 100,> 100,> 100,> 100,31.7,> 100,24.7,> 100
CC(O)c1ccc(C(O)/C(=N\NC(=O)c2ccncc2)c2nc3ccc([N+](=O)[O-])cc3[nH]c2=O)cc1 (stereo not given),,> 100,,> 100,,> 100,,> 100,,> 100,,> 100,,> 100,,> 100,,> 100,,> 100
Cc1cc(Cl)ccc1Nc1nc2c(s1)C(=O)c1ccccc1C2=O,,20.3,,16.1,,5.25,,10.7,,3.12,,4.08,,24.2,,16,,3.34,,5.64
Nc1nc(-c2ccc3ccccc3c2)cc(-c2cc(-c3ccc4ccccc4c3)nc(N)n2)n1,,> 100,,> 100,,> 100,,> 100,,> 100,,> 100,,> 100,,> 100,,> 100,,> 100
O=C1NC2OC(CO)C(O)C(O)C2O1 (stereo not given),,> 100,,> 100,,> 100,,> 100,,> 100,,> 100,,> 100,,> 100,,> 100,,> 100
CC/C(=C(/CC)c1ccc(O)cc1)c1ccc(O)cc1,4.22,27.8,10.7,23.3,4.92,15.9,3.64,12.9,5.75,19.4,5.79,23,2.73,11.6,5.84,19.7,3.02,12.9,7.04,22.7
CN1c2ccccc2S(=O)(=O)n2c(COc3ccccc3)nnc21,,> 100,,> 100,,> 100,,> 100,,> 100,,> 100,,> 100,,> 100,,> 100,,> 100
CCN(CC)CCNC(=O)C(Cl)=C1C(Cl)=C(Cl)C(Cl)=C1Cl,2.73,> 100,8.08,22.8,1.78,4.4,2.75,10.6,1.83,4.53,1.47,3.21,5.39,29.3,4.33,53.1,2.98,11.1,2.49,11.7
Cc1ccc(S(=O)(=O)OC2CSSCC2OS(=O)(=O)c2ccc(C)cc2)cc1 (stereo not given),,26.1,,35.5,,26,,28.3,,28.5,,22.8,,30.5,,22.8,,29.7,,22.8
N/C(=N/N=C/c1cccc(F)c1)NO,,91.7,,> 100,,> 100,,> 100,,97.7,,96.1,,> 100,,70,,32.4,,> 100
